Measured values as given in paper PMC11844072, “Novel 5,6-dichlorobenzimidazole derivatives as dual BRAFWT and BRAFV600E inhibitors: design, synthesis, anti-cancer activity and molecular dynamics simulations” (BMC Chemistry, 2025).

Tests used:
Assay in all cases: NCI 60 single concentration growth inhibition
Type in all cases: cell-based, human
COLO 205 = conditions: COLO 205, Colon cancer; for inhibition at 10 µM: Homo sapiens, read-out: GI%; for GI%: 10 μM
Description: (§1) The synthesized dichlorobenzimidazoles 10a–p were assayed for their influence on divers cancer cell lines according to the method presented in the Additional file A.
(§2) 5. Screening of cytotoxic activity against a panel of sixty human tumor cell lines
(§3) The selected compounds by NCI were evaluated for their anticancer activity in a two-stage process. First, these compounds were screened against the full NCI 60 cell lines panel at a single high dose of 10 µM. Then, the output from the single dose screen is reported as a mean graph. […]
(§4) Assay protocol. The human tumor cell lines of the cancer screening panel are grown in RPMI 1640 medium containing 5% fetal bovine serum and 2 mM L-glutamine. For a typical screening experiment, cells are inoculated into 96 well microtiter plates in 100 µL at plating densities ranging from 5000 to 40,000 cells/well depending on the doubling time of individual cell lines. After cell inoculation, the microtiter plates are incubated at 37 °C, 5% CO 2, 95% air and 100% relative humidity for 24 h prior to addition of the experimental drugs.
(§5) After 24 h, two plates of each cell line are fixed in situ with TCA, to represent a measurement of the cell population for each cell line at the time of drug addition (Tz). The experimental drugs are solubilized in dimethyl sulfoxide at 400-fold the desired final maximum test concentration and stored frozen prior to use. At the time of drug addition, an aliquot of frozen concentrate is thawed and diluted to twice the desired final maximum test concentration with complete medium containing 50 µg/mL gentamicin. Additional four, 10-fold or ½ log serial dilutions are made to provide a total of five drug concentrations plus control.
(§6) Aliquots of […] of these different drug dilutions are added to the appropriate microtiter wells already containing […] of medium, resulting in the required final drug concentrations.
(§7) Following drug addition, the plates are incubated for an additional 48 h at 37 °C, 5% CO 2, 95% air, and 100% relative humidity. For adherent cells, the assay is terminated by the addition of cold TCA.
(§8) Cells are fixed in situ by the gentle addition of 50 µL of cold 50% (w/v) TCA (final concentration, 10% TCA) and incubated for 60 min at 4 °C. The supernatant is discarded, and the plates are washed five times with tap water and air dried. Sulforhodamine B (SRB) solution ([…]) at 0.4% (w/v) in 1% acetic acid is added to each well, and plates are incubated for 10 min at room temperature. After staining, unbound dye is removed by washing five times with 1% acetic acid and the plates are air dried. Bound stain is subsequently solubilized with 10 mM trizma base, and the absorbance is read on an automated plate reader at a wavelength of 515 nm. For suspension cells, the methodology is […]
(§9) the same except that the assay is terminated by fixing settled cells at the bottom of the wells by gently adding 50 µl of 80% TCA (final concentration, 16% TCA). Using the seven absorbance measurements [time zero, (Tz), control growth, (C), and test growth in the presence of drug at the five concentration levels (Ti)], the percentage growth is calculated at each of the drug concentrations […]
(§10) Percentage growth inhibition is calculated as: [(Ti Tz)/(C–Tz)] x 100 for concentrations for which Ti>/=Tz and [(Ti-Tz)/Tz] x 100 for concentrations for which Ti < Tz. […]
(§11) Results for each compound were reported as a mean graph of the percent growth of the treated cells when compared to the untreated control cells. There after obtaining the results for one dose assay, analysis of historical Development Therapeutics Programme (DTP) was performed and compounds which satisfies predetermined threshold inhibition criteria is selected for NCI full panel 5 dose assay.

DU-145 = conditions: DU-145, Prostate cancer; for inhibition at 10 µM: Homo sapiens, read-out: GI%; for GI%: 10 μM
Description: as §1, §2, §3, §4, §5, §6, §7, §8, §9, §10, §11

HCC-2998 = conditions: HCC-2998, Colon cancer; for inhibition at 10 µM: Homo sapiens, read-out: GI%; for GI%: 10 μM
Description: as §1, §2, §3, §4, §5, §6, §7, §8, §9, §10, §11

HCT-15 = conditions: HCT-15, Colon cancer; for inhibition at 10 µM: Homo sapiens, read-out: GI%; for GI%: 10 μM
Description: as §1, §2, §3, §4, §5, §6, §7, §8, §9, §10, §11

HOP-92 = conditions: HOP-92, Non-small cell lung cancer; for inhibition at 10 µM: Homo sapiens, read-out: GI%; for GI%: 10 μM
Description: as §1, §2, §3, §4, §5, §6, §7, §8, §9, §10, §11

HT29 = conditions: for inhibition at 10 µM: Homo sapiens, HT-29, HT29, Colon cancer, read-out: GI%; for GI%: HT29, Colon cancer, 10 μM
Description: as §1, §2, §3, §4, §5, §6, §7, §8, §9, §10, §11

K-562 = conditions: for inhibition at 10 µM: Homo sapiens, K562, K-562, Leukemia, read-out: GI%; for GI%: K-562, Leukemia, 10 μM
Description: as §1, §2, §3, §4, §5, §6, §7, §8, §9, §10, §11

LOX IMVIL = conditions: Melanoma; for inhibition at 10 µM: Homo sapiens, read-out: GI%; for GI%: 10 μM
Description: as §1, §2, §3, §4, §5, §6, §7, §8, §9, §10, §11

NCI-H460 = conditions: NCI-H460, Non-small cell lung cancer; for inhibition at 10 µM: Homo sapiens, read-out: GI%; for GI%: 10 μM
Description: as §1, §2, §3, §4, §5, §6, §7, §8, §9, §10, §11

NCI-H522 = conditions: NCI-H522, Non-small cell lung cancer; for inhibition at 10 µM: Homo sapiens, read-out: GI%; for GI%: 10 μM
Description: as §1, §2, §3, §4, §5, §6, §7, §8, §9, §10, §11

NCI/ADR-RES = conditions: Ovarian cancer; for inhibition at 10 µM: Homo sapiens, read-out: GI%; for GI%: 10 μM
Description: as §1, §2, §3, §4, §5, §6, §7, §8, §9, §10, §11

OVCAR-3 = conditions: OVCAR-3, Ovarian cancer; for inhibition at 10 µM: Homo sapiens, read-out: GI%; for GI%: 10 μM
Description: as §1, §2, §3, §4, §5, §6, §7, §8, §9, §10, §11

OVCAR-4 = conditions: OVCAR-4, Ovarian cancer; for inhibition at 10 µM: Homo sapiens, read-out: GI%; for GI%: 10 μM
Description: as §1, §2, §3, §4, §5, §6, §7, §8, §9, §10, §11

SNB-19 = conditions: SNB-19, CNS cancer; for inhibition at 10 µM: Homo sapiens, read-out: GI%; for GI%: 10 μM
Description: as §1, §2, §3, §4, §5, §6, §7, §8, §9, §10, §11

SW-620 = conditions: SW-620, Colon cancer; for inhibition at 10 µM: Homo sapiens, read-out: GI%; for GI%: 10 μM
Description: as §1, §2, §3, §4, §5, §6, §7, §8, §9, §10, §11

TK-10 = conditions: TK-10, Renal cancer; for inhibition at 10 µM: Homo sapiens, read-out: GI%; for GI%: 10 μM
Description: as §1, §2, §3, §4, §5, §6, §7, §8, §9, §10, §11

U251 = conditions: for inhibition at 10 µM: Homo sapiens, U-251, U251, CNS cancer, read-out: GI%; for GI%: U251, CNS cancer, 10 μM
Description: as §1, §2, §3, §4, §5, §6, §7, §8, §9, §10, §11

Compound	inhibition at 10 µM (COLO 205) [%]	inhibition at 10 µM (DU-145) [%]	inhibition at 10 µM (HCC-2998) [%]	inhibition at 10 µM (HCT-15) [%]	inhibition at 10 µM (HOP-92) [%]	inhibition at 10 µM (HT29) [%]	inhibition at 10 µM (K-562) [%]	inhibition at 10 µM (LOX IMVIL) [%]	inhibition at 10 µM (NCI-H460) [%]	inhibition at 10 µM (NCI-H522) [%]	inhibition at 10 µM (NCI/ADR-RES) [%]	inhibition at 10 µM (OVCAR-3) [%]	inhibition at 10 µM (OVCAR-4) [%]	inhibition at 10 µM (SNB-19) [%]	inhibition at 10 µM (SW-620) [%]	inhibition at 10 µM (TK-10) [%]	inhibition at 10 µM (U251) [%]	other results
COc1ccc(-c2nc3cc(Cl)c(Cl)cc3n2CC(=O)NN=Cc2ccc(OCC(=O)O)cc2)cc1 [Compound 10f, 2-(4-((2-(2-(5,6-Dichloro-2-(4-methoxyphenyl)-1H-benzo[d]imidazol-1-yl)acetyl)hydrazono)methyl)phenoxy)acetic acid]	< 5	< 5	< 5	6.73	< 5	< 5	< 5	8.41	< 5	< 5	< 5	< 5	< 5	< 5	< 5	< 5	< 5	–
CCOC(=O)C(C)Oc1ccc(C=NNC(=O)Cn2c(-c3ccc(OC)cc3)nc3cc(Cl)c(Cl)cc32)cc1 (centres unmarked) [Compound 10j, Ethyl-2-(4-((2-(2-(5,6-dichloro-2-(4-methoxyphenyl)-1H-benzo[d]imidazol-1-yl)acetyl) hydrazono)methyl)phenoxy)propanoate]	8.58	85.2	15.4	37.1	15.2	39.2	41.3	18.4	< 5	32.6	< 5	< 5	9.77	11.2	< 5	< 5	5.26	–
2-(5-((2-(2-(5,6-Dichloro-2-(4-methoxyphenyl)-1H-benzo[d]imidazol-1-yl)acetyl)hydrazono)methyl)-2-methoxyphenoxy)acetic acid [Compound 10n]	–	–	–	–	–	–	–	–	–	–	–	–	–	–	–	–	–	GI% (COLO 205): – (GI% < 5%); GI% (DU-145): – (GI% < 5%); GI% (HCC-2998): – (GI% < 5%); GI% (HCT-15): – (GI% < 5%); GI% (HOP-92): – (GI% < 5%); GI% (HT29): – (GI% < 5%); GI% (K-562): – (GI% < 5%); GI% (LOX IMVIL): 10.35%; GI% (NCI-H460): – (GI% < 5%); GI% (NCI-H522): 8.04%; GI% (NCI/ADR-RES): – (GI% < 5%); GI% (OVCAR-3): – (GI% < 5%); GI% (OVCAR-4): – (GI% < 5%); GI% (SNB-19): – (GI% < 5%); GI% (SW-620): – (GI% < 5%); GI% (TK-10): – (GI% < 5%); GI% (U251): – (GI% < 5%)
2-(4-((2-(2-(5,6-Dichloro-2-(4-methoxyphenyl)-1H-benzo[d]imidazol-1-yl)acetyl)hydrazono)methyl) -2-methoxyphenoxy)acetic acid [Compound 10m]	–	–	–	–	–	–	–	–	–	–	–	–	–	–	–	–	–	GI% (COLO 205): – (GI% < 5%); GI% (DU-145): – (GI% < 5%); GI% (HCC-2998): – (GI% < 5%); GI% (HCT-15): – (GI% < 5%); GI% (HOP-92): – (GI% < 5%); GI% (HT29): – (GI% < 5%); GI% (K-562): – (GI% < 5%); GI% (LOX IMVIL): – (GI% < 5%); GI% (NCI-H460): – (GI% < 5%); GI% (NCI-H522): 6.07%; GI% (NCI/ADR-RES): – (GI% < 5%); GI% (OVCAR-3): – (GI% < 5%); GI% (OVCAR-4): – (GI% < 5%); GI% (SNB-19): – (GI% < 5%); GI% (SW-620): – (GI% < 5%); GI% (TK-10): – (GI% < 5%); GI% (U251): – (GI% < 5%)
COC(=O)COc1cc(C=NNC(=O)Cn2c(-c3ccc(OC)cc3)nc3cc(Cl)c(Cl)cc32)ccc1OC [Compound 10o, Methyl-2-(5-((2-(2-(5,6-dichloro-2-(4-methoxyphenyl)-1H-benzo[d]imidazol-1-yl)acetyl)hydrazono)methyl)-2-methoxyphenoxy)acetate]	< 5	155	83.8	23.6	29.1	90.3	23.6	36.4	< 5	32.7	11.1	< 5	18	< 5	< 5	< 5	6.53	–
COc1ccc(-c2nc3cc(Cl)c(Cl)cc3n2CC(=O)NN=Cc2cccc(OC)c2)cc1 [Compound 10c, 2-(5,6-Dichloro-2-(4-methoxyphenyl)-1H-benzo[d]imidazol-1-yl)-N'-(3-methoxybenzylidene)acetohydrazide]	8.17	23.3	7.72	44.2	20.6	5.29	46.5	30.3	23.7	15.1	21.3	14.4	42.1	32.4	10.2	5.88	26.6	–
COC(=O)COc1cccc(C=NNC(=O)Cn2c(-c3ccc(OC)cc3)nc3cc(Cl)c(Cl)cc32)c1 [Compound 10g, Methyl-2-(3-((2-(2-(5,6-dichloro-2-(4-methoxyphenyl)-1H-benzo[d]imidazol-1-yl)acetyl)hydrazono)methyl)phenoxy)acetate]	< 5	110	44	21.4	5.5	51.7	21.3	19.1	< 5	9.11	< 5	< 5	< 5	< 5	< 5	< 5	< 5	–
